We go through nine compounds from patent publication US20250002473A1, “QUINOXALINE DERIVED SULFONAMIDES WITH EGFR DEGRADATION ACTIVITIES AND THEIR USES THEREOF” (Accutar Biotechnology Inc., priority 2023, published 2025).

What all share (assay type): cell-based
The subject of assay [1] is BaF3_DTC (EGFR_Exon19del/T790M/C797S). Description: EGFR degradation assay (western blot), BaF3_DTC cells. Particulars: BaF3_DTC cells (EGFR_Exon19del/T790M/C797S), compounds 24 h, western blot; read-out: BaF3_DTC DC50. The method, then: (§1) A431 (EGFR_WT), NCl-H2073 (EGFR_WT), NCl-H292 (EGFR_WT), BaF3_YVAM (Her2_A775insYVAM), BaF3_SVD (EGFR_D770insSVD), BaF3_ASV (EGFR_A776inASV), or BaF3_DTC (EGFR_Exon19del/T790M/C797S) cells were seeded in a 24-well plate at a density of 4×10^5 cells per well for EGFR WT cells and 8× cells per well for EGFR or Her2 mutant cells, and the plates were incubated overnight. The cells were treated with the desired compounds for 24 h. The culture medium was removed, and 100 μL of RIPA buffer (Beyotime, P0013B) containing 1% Protease Inhibitor Cocktail (Bimake, B14001), 1% Phosphatase Inhibitor Cocktail 2 (Sigma, P5726), and 1% Phosphatase Inhibitor Cocktail 3 (Sigma, P0044) were added to lyse the cells. Then, the cell lysates were transferred to 1.5 mL microcentrifuge tubes and centrifuged at 12,000 rpm and 4° C. for 30 min. The supernatants were transferred into new tubes, and the protein concentration was determined using the BCA protein quantification method. All samples were diluted to the same concentration using RIPA buffer, loading buffer was added, samples were denatured, and 15 μg of protein per lane was loaded onto a SurePAGE 4-20% Bis-Tris gel. Samples were separated via electrophoresis in MOPS running buffer at 180 V for 100 min. Then, proteins were transferred onto PVDF membranes using the MiniBlot™ Electrophoretic Transfer Cell Device (Beyotime, E6050). The membrane was blocked using block buffer (LI-COR 927-60001) to prevent non-specific binding. The membrane was incubated with primary antibodies (1:500 dilution, EGFR-CST4405, 1:2000 dilution, Tubulin-ABclonal #AC021) at 4° C. overnight. The membrane was washed three times with 1× TBST buffer for 15 min each. The membrane was incubated with secondary antibodies IRDye 680RD Goat anti-Rabbit IgG Secondary Antibody (1:2000 dilution, LI-COR 926-68071) and IRDye 800CW Goat anti-Mouse IgG Secondary Antibody (1:2000 dilution, LI-COR 926-32210). Finally, the membrane was washed again with 1× TBST buffer 3 times. Fluorescence was detected using the Odyssey CLx Imaging System, and the data were analyzed with Empiria Studio Software and GraphPad Prism 9. Table 4 and Table 5 list the degradation results, where the degradation potency is represented by DC50, the concentration of compounds to cause the degradation of 50% of the corresponding proteins. FIGS. 45-49 show western blots illustrating the EGFR degradative activity of exemplary Compound of the present disclosure and a comparator Compound A in different cell lines 24 h after administration. The Compound referred herein as Compound A is disclosed in WO 2022/171123 A1 (see, compound 133, page 46; published Aug. 18, 2022). WO 2022/171123 A1 discloses phosphine oxide derived molecules with EGFR degradation activity.

In assay [2] the target is T1, BaF3_ASV (EGFR_A776inASV) (Homo sapiens, UniProt P00533, DUP767-769).
T1 construct: expressed in transfected cells; host or cells: Ba/F3 (engineered)
T1 sequence (P00533 with tags, fused parts or gaps DUP767-769): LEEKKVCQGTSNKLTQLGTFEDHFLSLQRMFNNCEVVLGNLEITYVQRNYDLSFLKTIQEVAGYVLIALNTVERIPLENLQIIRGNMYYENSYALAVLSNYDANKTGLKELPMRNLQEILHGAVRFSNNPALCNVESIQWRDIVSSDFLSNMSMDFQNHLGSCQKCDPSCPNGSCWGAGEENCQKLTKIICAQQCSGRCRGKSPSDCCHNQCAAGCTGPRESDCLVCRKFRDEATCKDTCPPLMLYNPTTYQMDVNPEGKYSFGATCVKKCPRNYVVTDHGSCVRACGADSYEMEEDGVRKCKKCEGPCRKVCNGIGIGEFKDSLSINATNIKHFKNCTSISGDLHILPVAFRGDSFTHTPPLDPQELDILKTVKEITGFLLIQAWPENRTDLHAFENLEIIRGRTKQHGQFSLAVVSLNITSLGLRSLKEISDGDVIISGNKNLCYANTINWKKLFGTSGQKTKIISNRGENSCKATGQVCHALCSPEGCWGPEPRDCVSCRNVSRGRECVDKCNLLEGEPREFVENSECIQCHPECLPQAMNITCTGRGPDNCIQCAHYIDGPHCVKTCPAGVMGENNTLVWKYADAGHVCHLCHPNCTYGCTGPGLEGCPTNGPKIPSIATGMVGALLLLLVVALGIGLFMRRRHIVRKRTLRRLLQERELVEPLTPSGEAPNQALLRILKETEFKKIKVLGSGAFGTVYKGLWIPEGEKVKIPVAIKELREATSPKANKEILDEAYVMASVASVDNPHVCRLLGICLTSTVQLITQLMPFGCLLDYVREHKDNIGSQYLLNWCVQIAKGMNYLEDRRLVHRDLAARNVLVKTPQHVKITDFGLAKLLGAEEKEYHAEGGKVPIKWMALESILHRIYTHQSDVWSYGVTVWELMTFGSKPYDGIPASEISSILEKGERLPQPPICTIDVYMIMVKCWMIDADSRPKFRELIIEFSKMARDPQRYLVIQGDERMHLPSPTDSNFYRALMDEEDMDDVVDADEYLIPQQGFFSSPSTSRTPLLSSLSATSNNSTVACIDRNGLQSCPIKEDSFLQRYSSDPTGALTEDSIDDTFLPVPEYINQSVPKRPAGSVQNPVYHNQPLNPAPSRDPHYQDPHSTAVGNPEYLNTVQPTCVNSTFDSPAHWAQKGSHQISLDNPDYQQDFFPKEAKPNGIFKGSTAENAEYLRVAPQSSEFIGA
As to the kind of experiment: EGFR degradation assay (western blot), BaF3_ASV cells. The conditions noted are these: BaF3_ASV cells, compounds 24 h, western blot; read-out: BaF3_ASV DC50. On the procedure:
as §1
(In general: In western blotting, separated proteins are transferred to a membrane and probed.)

The test system of the next assay is A431. Description: Cell growth inhibition assay (CellTiter-Glo), A431. Particulars: Homo sapiens, A-431, 72 h, Table 6; A431 cells, three days, CellTiter-Glo; read-out: A431 GI50. The method, then:
(§2) Cells were seeded in a 96-well plate (Corning 3610) with 90 μL of culture medium per well, and plates were incubated at 37° C. overnight. A 1,000× DMSO stock solution of the desired compound was prepared the following day. A compound dilution plate was prepared by diluting the stock solution 1:100 in the corresponding cell culture medium, 10 μL of the diluted compound solution was added to each 96-well plate well containing the seeded cells. […] The content of the wells was mixed by shaking continuously for 10 min, and luminescence was measured using Envision (PerkinElmer). The data were analyzed with GraphPad Prism 9 (see FIG. 50).
(§3) Table 6, Table 7, and Table 8 list the cell growth inhibition results, where Gls0 represents the compound concentration to cause 50% cell growth inhibition in comparison with DMSO.

A further assay has as its system BaF3_DTC. As to the kind of experiment: Cell growth inhibition assay (CellTiter-Glo), BaF3_DTC. Particulars: 72 h; Table 6; BaF3_DTC cells, three days, CellTiter-Glo; read-out: BaF3_DTC GI50. On the procedure:
as §2, §3
(ATP-based viability assays read luminescence as a measure of living cells.)

The subject of another assay is BaF3_ASV. As to the kind of experiment: Cell growth inhibition assay (CellTiter-Glo), BaF3_ASV. Particulars: 72 h; Table 6; BaF3_ASV cells, three days, CellTiter-Glo; read-out: BaF3_ASV GI50. On the procedure: as §2, §3

Where only a bound is given, the exact number is not on record here.

The term DC50 denotes the concentration at which degradation of the target reaches its halfway point. A word on the GI50: it is the concentration at which growth is held to half of that of the control. As to `CCc1cc(Nc2ncc(Br)c(Nc3ccc4nccnc4c3NS(C)(=O)=O)n2)c(OC)cc1N1CCN(CC2(CN3CCN(c4ccc5c(c4)CN([C@H]4CCC(=O)NC4=O)C5=O)CC3)CC2)CC1` [Compound 44, (S)-N-(6-((5-bromo-2-((4-(4-((1-((4-(2-(2,6-dioxopiperidin-3-yl)-1-oxoisoindolin-5-yl)piperazin-1-yl)methyl)cyclopropyl)methyl)piperazin-1-yl)-5-ethyl-2-methoxyphenyl)amino)pyrimidin-4-yl)amino)quinoxalin-5-yl)methanesulfonamide], the DC50 in assay [1] was 4.11 nM; in assay [2], above 1000 nM. Further, the GI50 is above 1000 nM with A431, 18.4 nM in the assay on BaF3_DTC and 527 nM in the assay on BaF3_ASV.

`CCc1cc(Nc2ncc(Br)c(Nc3ccc4nccnc4c3NS(C)(=O)=O)n2)c(OC)cc1N1CCC(N2CCN(C3CCC4(CC3)CN(c3ccc5c(c3)CN(C3CCC(=O)NC3=O)C5=O)C4)CC2)CC1` (stereo not drawn) [Compound 50, N-(6-((5-bromo-2-((4-(4-(4-(2-(2-(2,6-dioxopiperidin-3-yl)-1-oxoisoindolin-5-yl)-2-azaspiro[3.5]nonan-7-yl)piperazin-1-yl)piperidin-1-yl)-5-ethyl-2-methoxyphenyl)amino)pyrimidin-4-yl)amino)quinoxalin-5-yl)methanesulfonamide]: the values for the DC50 in assay [1] and in assay [2] were 38.5 nM and 95.2 nM, respectively. Further, the values for the GI50 in the assay with A431, in the assay on BaF3_DTC and in the assay with BaF3_ASV were above 1000 nM, 13 nM and 106 nM, respectively.

As to `CCc1cc(Nc2ncc(Br)c(Nc3ccc4nccnc4c3NS(C)(=O)=O)n2)c(OC)cc1N1CCC(N2CCC3(CCN(c4ccc5c(c4)CN(C4CCC(=O)NC4=O)C5=O)CC3)CC2)CC1` (stereo not drawn) [Compound 53, N-(6-((5-bromo-2-((4-(4-(9-(2-(2,6-dioxopiperidin-3-yl)-1-oxoisoindolin-5-yl)-3,9-diazaspiro[5.5]undecan-3-yl)piperidin-1-yl)-5-ethyl-2-methoxyphenyl)amino)pyrimidin-4-yl)amino)quinoxalin-5-yl)methanesulfonamide], the DC50 is 5.99 nM in assay [1] and above 1000 nM in assay [2]. In addition, the GI50 in the assay with A431 was above 1000 nM; in the assay on BaF3_DTC, 22.7 nM; with BaF3_ASV it was 330 nM.

Regarding `CCc1cc(Nc2ncc(Br)c(Nc3ccc4nccnc4c3NS(C)(=O)=O)n2)c(OC)cc1N1CCC(CN2CCC3(CC2)CCN(c2ccc4c(c2)CN(C2CCC(=O)NC2=O)C4=O)CC3)CC1` (stereo not drawn) [Compound 54, N-(6-((5-bromo-2-((4-(4-((9-(2-(2,6-dioxopiperidin-3-yl)-1-oxoisoindolin-5-yl)-3,9-diazaspiro[5.5]undecan-3-yl)methyl)piperidin-1-yl)-5-ethyl-2-methoxyphenyl)amino)pyrimidin-4-yl)amino)quinoxalin-5-yl)methanesulfonamide], the half-maximal degradation concentration (DC50) was found to be 13.3 nM in assay [1] and 33.5 nM in assay [2]. Moreover, the GI50 with A431 was above 1000 nM; with BaF3_DTC it was 4.77 nM; with BaF3_ASV it was 31 nM.

For the compound `CCc1cc(Nc2ncc(Br)c(Nc3ccc4nccnc4c3NS(C)(=O)=O)n2)c(OC)cc1N1CCC(CN2CCC3(CC2)CN(c2ccc4c(c2)CN(C2CCC(=O)NC2=O)C4=O)C3)CC1` (stereo not drawn) [Compound 56, N-(6-((5-bromo-2-((4-(4-((2-(2-(2,6-dioxopiperidin-3-yl)-1~oxoisoindolin-5-yl)-2,7-diazaspiro[3.5]nonan-7-yl)methyl)piperidin-1-yl)-5-ethyl-2-methoxyphenyl)amino)pyrimidin-4-yl)amino)quinoxalin-5-yl)methanesulfonamide], the DC50 in assay [1] came to 9.32 nM; in assay [2] it was 18 nM. Moreover, the GI50 with A431 is above 1000 nM; in the assay on BaF3_DTC, 6.08 nM; in the assay on BaF3_ASV, 37.2 nM.

With `CCc1cc(Nc2ncc(Br)c(Nc3ccc4nccnc4c3NS(C)(=O)=O)n2)c(OC)cc1N1CCC(CN2CC3(CCN(c4ccc5c(c4)CN(C4CCC(=O)NC4=O)C5=O)CC3)C2)CC1` (stereo not drawn) [Compound 58, N-(6-((5-bromo-2-((4-(4-((7-(2-(2,6-dioxopiperidin-3-yl)-1-oxoisoindolin-5-yl)-2,7-diazaspiro[3.5]nonan-2-yl)methyl)piperidin-1-yl)-5-ethyl-2-methoxyphenyl)amino)pyrimidin-4-yl)amino)quinoxalin-5-yl)methanesulfonamide], the DC50 in assay [1] was found to be 10.4 nM; in assay [2], 23 nM. Besides, the GI50 in the assay with A431 was above 1000 nM; in the assay on BaF3_DTC it was 11.2 nM; in the assay with BaF3_ASV it was 49 nM.

`CCc1cc(Nc2ncc(Br)c(Nc3ccc4nccnc4c3NS(C)(=O)=O)n2)c(OC)cc1N1CCC(N2CC(CN3CCN(c4ccc5c(c4)CN([C@H]4CCC(=O)NC4=O)C5=O)CC3)C2)CC1` [Compound 62, (S)-N-(6-((5-bromo-2-((4-(4-(3-((4-(2-(2,6-dioxopiperidin-3-yl)-1-oxoisoindolin-5-yl)piperazin-1-yl)methyl)azetidin-1-yl)piperidin-1-yl)-5-ethyl-2-methoxyphenyl)amino)pyrimidin-4-yl)amino)quinoxalin-5-yl)methanesulfonamide]: the DC50 in assay [1] turned out to be 5.18 nM; in assay [2] it was 75.2 nM. In addition, the GI50 with A431 amounted to 383 nM; with BaF3_DTC, 19.3 nM; with BaF3_ASV it was 130 nM.

Take `CCc1cc(Nc2ncc(Br)c(Nc3ccc4nccnc4c3NS(C)(=O)=O)n2)c(OC)cc1N1CCC(N2CC(N3CCN(c4ccc5c(c4)CN([C@H]4CCC(=O)NC4=O)C5=O)CC3)C2)CC1` [Compound 63, (S)-N-(6-((5-bromo-2-((4-(4-(3-(4-(2-(2,6-dioxopiperidin-3-yl)-1-oxoisoindolin-5-yl)piperazin-1-yl)azetidin-1-yl)piperidin-1-yl)-5-ethyl-2-methoxyphenyl)amino)pyrimidin-4-yl)amino)quinoxalin-5-yl)methanesulfonamide]: the values for the half-maximal degradation concentration (DC50) in assay [1] and in assay [2] were 12.9 nM and 18.2 nM, respectively. Besides, the GI50 with A431 is above 1000 nM; with BaF3_DTC it was 6.23 nM; in the assay with BaF3_ASV, 40.8 nM.

For `CCc1cc(Nc2ncc(Br)c(Nc3ccc4nccnc4c3NS(C)(=O)=O)n2)c(OC)cc1N1CCC(N2CCN(CCC3CCN(c4cc(F)c(C5CCC(=O)NC5=O)c(F)c4)CC3)CC2)CC1` (stereo not drawn) [Compound 90, N-(6-((5-bromo-2-((4-(4-(4-(2-(1-(4-(2,6-dioxopiperidin-3-yl)-3,5-difluorophenyl)piperidin-4-yl)ethyl)piperazin-1-yl)piperidin-1-yl)-5-ethyl-2-methoxyphenyl)amino)pyrimidin-4-yl)amino)quinoxalin-5-yl)methanesulfonamide], the DC50 amounted to 38.6 nM in assay [1] and 135 nM in assay [2]. Also, the GI50 in the assay with A431 is above 1000 nM; in the assay on BaF3_DTC, 19.1 nM; with BaF3_ASV, 89.4 nM.
